Test results as given in patent publication US20210221832A1, “SUBSTITUTED PYRIDOINDOLES FOR THE TREATMENT AND PROPHYLAXIS OF BACTERIAL INFECTION” (Hoffmann-La Roche Inc., priority 2018, published 2021).

experiment: Lyophilisation Solubility Assay (LYSA); type: physicochemical; conditions: aqueous buffer, thermodynamic from solid; 0.05 M phosphate buffer, pH 6.5
Description: The solubility of compounds of present invention was assessed by LYSA assay. Samples were prepared in duplicate from 10 mM DMSO stock solutions (20 μL) diluted in 30 μL pure DMSO. After evaporation of DMSO with a centrifugal vacuum evaporator, the residue was dissolved in 0.05 M phosphate buffer (150 μL, pH 6.5), which was stirred for one hour and shook for two hours. After one night, the solution was filtered using a microtiter filter plate. Then the filtrate and its 1/10 dilution were analyzed by HPLC-UV. In addition, a four-point calibration curve was prepared from the 10 mM stock solutions and used for the solubility determination of the compounds.

| SMILES | solubility |
| --- | --- |
| CN1C[C@@H]2CCN(c3c(-c4cnc5c(c4)c(=O)c(C(=O)O)cn5C)cnc4[nH]c5c(N(C)C(=O)OCOP(=O)(O)O)cc(F)c(C#N)c5c34)[C@@H]2C1 [Example 1.01, 6-[5-Cyano-6-fluoro-8-[methyl(phosphonooxymethoxycarbonyl)amino]-4-[(3aS,6aS)-5-methyl-2,3,3a,4,6,6a-hexahydropyrrolo[2,3-c]pyrrol-1-yl]-9H-pyrido[2,3-b]indol-3-yl]-1-methyl-4-oxo-1,8-naphthyridine-3-carboxylic acid] | > 595 µg/mL |
| CN1C[C@@H]2CCN(c3c(-c4cnc5c(c4)c(=O)c(C(=O)O)cn5C)cnc4[nH]c5c(N(C)C=O)cc(F)c(C#N)c5c34)[C@@H]2C1 [Example 1.03, 6-[5-Cyano-6-fluoro-8-[formyl(methyl)amino]-4-[(3aS,6aS)-5-methyl-2,3,3a,4,6,6a-hexahydropyrrolo[2,3-c]pyrrol-1-yl]-9H-pyrido[2,3-b]indol-3-yl]-1-methyl-4-oxo-1,8-naphthyridine-3-carboxylic acid] | > 730 µg/mL |
| CNc1cc(F)c(C#N)c2c1[nH]c1ncc(-c3cnc4c(c3)c(=O)c(C(=O)O)cn4C)c(N3CC[C@H]4C[N+](C)(COP(=O)(O)O)C[C@H]43)c12 (stereo partly drawn) [Example 1.07, 6-[5-Cyano-6-fluoro-8-(methylamino)-4-[(3aS,6aS)-5-methyl-5-(phosphonooxymethyl)-2,3,3a,4,6,6a-hexahydropyrrolo[2,3-c]pyrrol-5-ium-1-yl]-9H-pyrido[2,3-b]indol-3-yl]-1-methyl-4-oxo-1,8-naphthyridine-3-carboxylic acid] | > 1060 µg/mL |
| CN1C[C@@H]2CCN(c3c(-c4cnc5c(c4)c(=O)c(C(=O)O)cn5C)cnc4[nH]c5c(N(C)C=O)cc(F)c(F)c5c34)[C@@H]2C1 [Example 1.26, 6-[5,6-Difluoro-8-[formyl(methyl)amino]-4-[(3aS,6aS)-5-methyl-2,3,3a,4,6,6a-hexahydropyrrolo[2,3-c]pyrrol-1-yl]-9H-pyrido[2,3-b]indol-3-yl]-1-methyl-4-oxo-1,8-naphthyridine-3-carboxylic acid] | > 783 µg/mL |
| CN1C[C@@H]2CCN(c3c(-c4cnc5c(c4)c(=O)c(C(=O)O)cn5C)cnc4[nH]c5c(N(C)S(=O)(=O)O)cc(F)c(F)c5c34)[C@@H]2C1 [Example 1.27, 6-[5,6-Difluoro-8-[methyl(sulfo)amino]-4-[(3aS,6aS)-5-methyl-2,3,3a,4,6,6a-hexahydropyrrolo[2,3-c]pyrrol-1-yl]-9H-pyrido[2,3-b]indol-3-yl]-1-methyl-4-oxo-1,8-naphthyridine-3-carboxylic acid] | > 685 µg/mL |
| CN1C[C@@H]2CCN(c3c(-c4cnc5c(c4)c(=O)c(C(=O)O)cn5C)cnc4[nH]c5c(N(C)C(=O)OCOC(=O)/C=C/C(=O)O)cc(F)c(F)c5c34)[C@@H]2C1 [Example 1.28, 6-[5,6-Difluoro-8-[methyl-[[(E)-3-carboxyprop-2-enoyl]oxymethoxycarbonyl]amino]-4-[(3aS,6aS)-5-methyl-2,3,3a,4,6,6a-hexahydropyrrolo[2,3-c]pyrrol-1-yl]-9H-pyrido[2,3-b]indol-3-yl]-1-methyl-4-oxo-1,8-naphthyridine-3-carboxylic acid] | > 945 µg/mL |
| CN1C[C@@H]2CCN(c3c(-c4ccc5ccc(C(=O)O)c(=O)n5c4)cnc4[nH]c5c(N(C)C(=O)OCOP(=O)(O)O)cc(F)c(F)c5c34)[C@@H]2C1 [Example 1.32, 7-[5,6-Difluoro-8-[methyl(phosphonooxymethoxycarbonyl)amino]-4-[(3aS,6aS)-5-methyl-2,3,3a,4,6,6a-hexahydropyrrolo[2,3-c]pyrrol-1-yl]-9H-pyrido[2,3-b]indol-3-yl]-4-oxo-quinolizine-3-carboxylic acid] | > 875 µg/mL |
